Test system: isolated rat adipocytes
Assay: Antagonism of fragment 116-167 to the leptin effect: insulin-stimulated lipogenesis
Type: cell-based
Method: Adipocytes were prepared from the epididymal fat tissue of male Wistar rats (140-160 g, Hoechst AG breeding station, Kastengrund) by means of digesting with collagenase (Rodbell, 1964, J. Biol. Chem. 239, 375-380), washed twice with KRH (25 mM Hepes free acid, 25 mM Hepes sodium salt, 80 mM NaCl, 1 mM MgSO4, 2 mM CaCl2, 6 mM KCl, 1 mM sodium pyruvate, 0.5% BSA) and once with DMEM (Dulbecco's minimal essential medium), supplemented with 5.5 mM glucose, 20 mM Hepes (pH 7.4), 2% fetal calf serum, 1% BSA, 50 U of penicillin/ml, […], by means of flotation (800×g, 1 min, in small plastic tubes), and finally diluted to a volume of 20 ml of DMEM/g wet weight of the fat tissue (cell titer: approximately 2.5×10^5 cells/ml). […] In order to determine the capacity of the adipocytes to be stimulated by insulin, and their sensitivity to insulin, following the primary culture, the washed adipocytes were incubated at 37° C. for 20 min in the absence or presence of human insulin (0.02-50 nM final concentration), and glucose transport or lipogenesis was then measured. Lipogenesis was measured as the incorporation of D-glucose into toluene-extractable lipids (Moody et al., 1974, Horm. Metab. Res. 6, 12-16). […] The radioactivity of the lipids in the toluene phase was corrected for the radioactivity of an incubation mixture which contained the same quantity of [^3H]glucose but no cells. […]

Substance | Lipogenesis, stimulation factor for insulin (stimulated/basal) (Insulin only, 5 nM (no leptin, no fragment)) | Lipogenesis, stimulation factor for insulin (stimulated/basal) (Leptin: 10 nM 17.5 h, no fragment, Insulin: 5 nM)
Insulin: human insulin used to stimulate adipocytes [reference compound] | 3.9 | –
Leptin | – | 1.5

— patent publication US6399745B1, “Use of leptin antagonists for treating insulin resistance in type II diabetes” (Aventis Pharma Deutschland GmbH, priority 1996, dated 2002)
